Laboratory results published in PubChem BioAssay AID256 (DTP/NCI, 2004).
Toxic doses and inconclusive results are not listed.

Test system: CD2F1 mice, L1210 leukemia ip, survival T/C
Test: NCI In Vivo Anticancer Drug Screen. Data for tumor model L1210 Leukemia (intraperitoneal) in CD2F1 (CDF1) mice
Conditions: higher = longer survival
Summary of the method: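 Activity against a transplanted murine tumor was judged by comparing the compound group with a vehicle group. The outcome in the treated animals was divided by that in the controls.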

[1] = endpoint: mean survival time, dose: 100.0 mg/kg/injection, schedule: Q01DX009 (ip), vehicle: saline with Tween-80
[2] = endpoint: mean survival time, dose: 200.0 mg/kg/injection, schedule: Q01DX009 (ip), vehicle: saline with Tween-80
[3] = endpoint: mean survival time, dose: 400.0 mg/kg/injection, schedule: Q01DX009 (ip), vehicle: saline with Tween-80
[4] = endpoint: mean survival time, dose: 100.0 mg/kg/injection, schedule: Q04DX003 (ip), vehicle: saline with Tween-80
[5] = endpoint: mean survival time, dose: 200.0 mg/kg/injection, schedule: Q04DX003 (ip), vehicle: saline with Tween-80
[6] = endpoint: mean survival time, dose: 400.0 mg/kg/injection, schedule: Q04DX003 (ip), vehicle: saline with Tween-80

Structure (SMILES): OC(Cc1[nH]c2ccccc2c1C(O)(C(F)(F)F)C(F)(F)F)(C(F)(F)F)C(F)(F)F
- T/C (endpoint: mean survival time, dose: 100.0 mg/kg/injection, schedule: Q01DX009 (ip), vehicle: other): 101 % of control
- T/C (endpoint: mean survival time, dose: 200.0 mg/kg/injection, schedule: Q01DX009 (ip), vehicle: other): 110 % of control
- T/C (endpoint: mean survival time, dose: 400.0 mg/kg/injection, schedule: Q01DX009 (ip), vehicle: other): 94 % of control

Structure (SMILES): COc1cc2c(c(OC)c1OC)-c1ccc(SCc3ccccc3)c(=O)cc1[C@@H](NC(C)=O)CC2
- T/C (endpoint: mean survival time, dose: 1.56 mg/kg/injection, schedule: Q01DX009 (ip), vehicle: Klucel (hydroxypropylcellulose) (HPC)): 103 % of control
- T/C (endpoint: mean survival time, dose: 3.12 mg/kg/injection, schedule: Q01DX009 (ip), vehicle: Klucel (hydroxypropylcellulose) (HPC)): 97 % of control
- T/C (endpoint: mean survival time, dose: 6.25 mg/kg/injection, schedule: Q01DX009 (ip), vehicle: Klucel (hydroxypropylcellulose) (HPC)): 112 % of control
- T/C (endpoint: mean survival time, dose: 12.5 mg/kg/injection, schedule: Q01DX009 (ip), vehicle: Klucel (hydroxypropylcellulose) (HPC)): 121 % of control
- T/C (endpoint: mean survival time, dose: 25.0 mg/kg/injection, schedule: Q01DX009 (ip), vehicle: Klucel (hydroxypropylcellulose) (HPC)): 117 % of control

Structure (SMILES): CCCC(C(=O)O)C1=CCCC1 (stereo not drawn)
- T/C (endpoint: mean survival time, dose: 25.0 mg/kg/injection, schedule: Q01DX009 (ip), vehicle: saline with Tween-80): 102 % of control
- T/C (endpoint: mean survival time, dose: 50.0 mg/kg/injection, schedule: Q01DX009 (ip), vehicle: saline with Tween-80): 102 % of control
- T/C [1]: 100 % of control

Structure (SMILES): Cc1ccc(S(=O)(=O)Nc2ccccc2-c2nc3ccc(C)cc3c(=O)o2)cc1
- T/C [1]: 100 % of control
- T/C [2]: 91 % of control
- T/C [3]: 96 % of control

Structure (SMILES): Nc1cc(I)c2cccnc2c1O
- T/C (endpoint: mean survival time, dose: 6.25 mg/kg/injection, schedule: Q01DX009 (ip), vehicle: saline): 96 % of control
- T/C (endpoint: mean survival time, dose: 12.5 mg/kg/injection, schedule: Q01DX009 (ip), vehicle: saline): 111 % of control
- T/C (endpoint: mean survival time, dose: 25.0 mg/kg/injection, schedule: Q01DX009 (ip), vehicle: saline): 100 % of control
- T/C (endpoint: mean survival time, dose: 50.0 mg/kg/injection, schedule: Q01DX009 (ip), vehicle: saline): 108 % of control

Structure (SMILES): NN=C1c2ccccc2-c2ccccc21
- T/C [4]: 94 % of control
- T/C [5]: 86 % of control
- T/C [6]: 96 % of control

Structure (SMILES): Cc1ccc(Nc2ccc(O)c3c2C(=O)c2c(O)ccc(Nc4ccc(C)cc4)c2C3=O)cc1
- T/C [1]: 88 % of control
- T/C [2]: 88 % of control
- T/C [3]: 98 % of control

Structure (SMILES): CCC(Cc1ccccc1)C1=NC(C)(C)CC(C)O1 (stereo not drawn)
- T/C (endpoint: mean survival time, dose: 100.0 mg/kg/injection, schedule: Q01DX001 (ip), vehicle: saline with Tween-80): 97 % of control
- T/C (endpoint: mean survival time, dose: 200.0 mg/kg/injection, schedule: Q01DX001 (ip), vehicle: saline with Tween-80): 89 % of control

Structure (SMILES): CC(O)CC1CCCC(CC(C)O)N1 (stereo not drawn)
- T/C (endpoint: mean survival time, dose: 5.0 mg/kg/injection, schedule: Q01DX001 (ip), vehicle: saline): 103 % of control
- T/C (endpoint: mean survival time, dose: 10.0 mg/kg/injection, schedule: Q01DX001 (ip), vehicle: saline): 97 % of control
- T/C (endpoint: mean survival time, dose: 20.0 mg/kg/injection, schedule: Q01DX001 (ip), vehicle: saline): 103 % of control
- T/C (endpoint: mean survival time, dose: 40.0 mg/kg/injection, schedule: Q01DX001 (ip), vehicle: saline): 105 % of control
- T/C (endpoint: mean survival time, dose: 75.0 mg/kg/injection, schedule: Q01DX001 (ip), vehicle: saline): 98 % of control
- T/C (endpoint: mean survival time, dose: 300.0 mg/kg/injection, schedule: Q01DX001 (ip), vehicle: saline): 102 % of control

Structure (SMILES): NC1CCCCC1N.O=C1C=CC(=C(c2ccc(O)cc2)c2ccccc2S(=O)(=O)[O-])C=C1.O=[N+]([O-])[O-].[Pt+4]
- T/C (endpoint: median survival time, dose: 1.56 mg/kg/injection, schedule: Q04DX003 (ip), vehicle: saline): 170 % of control
- T/C (endpoint: median survival time, dose: 3.12 mg/kg/injection, schedule: Q04DX003 (ip), vehicle: saline with Tween-80): 361 % of control
- T/C (endpoint: median survival time, dose: 3.12 mg/kg/injection, schedule: Q04DX003 (ip), vehicle: saline): 353 % of control
- T/C (endpoint: median survival time, dose: 6.25 mg/kg/injection, schedule: Q04DX003 (ip), vehicle: saline with Tween-80): 361 % of control
- T/C (endpoint: median survival time, dose: 6.25 mg/kg/injection, schedule: Q04DX003 (ip), vehicle: saline): 243 % of control
- T/C (endpoint: median survival time, dose: 12.5 mg/kg/injection, schedule: Q04DX003 (ip), vehicle: saline): 365 % of control

Structure (SMILES): O=C(CSCCN1CCCCC1)N1c2ccccc2Sc2ccccc21
- T/C (endpoint: mean survival time, dose: 12.5 mg/kg/injection, schedule: Q04DX003 (ip), vehicle: saline): 104 % of control
- T/C (endpoint: mean survival time, dose: 25.0 mg/kg/injection, schedule: Q04DX003 (ip), vehicle: saline): 101 % of control
- T/C (endpoint: mean survival time, dose: 50.0 mg/kg/injection, schedule: Q04DX003 (ip), vehicle: saline): 101 % of control

Structure (SMILES): O=[N+]([O-])c1c(O)c(CNCCCO)cc(CNCCCO)c1O
- T/C (endpoint: median survival time, dose: 6.25 mg/kg/injection, schedule: Q01DX009 (ip), vehicle: saline): 100 % of control
- T/C (endpoint: median survival time, dose: 12.5 mg/kg/injection, schedule: Q01DX009 (ip), vehicle: saline): 97 % of control
- T/C (endpoint: median survival time, dose: 25.0 mg/kg/injection, schedule: Q01DX009 (ip), vehicle: saline): 88 % of control
- T/C (endpoint: median survival time, dose: 50.0 mg/kg/injection, schedule: Q01DX009 (ip), vehicle: saline): 92 % of control

Structure (SMILES): [O-][n+]1c2cccc(O)c2[n+]([O-])c2cccc(O)c21
- T/C [4]: 91 % of control
- T/C [5]: 100 % of control
- T/C [6]: 103 % of control
